Laboratory results: ChEMBL document CHEMBL4396932, “Rasagiline derivatives combined with histamine H3 receptor properties” (Bioorg Med Chem Lett, 2019)

How the values were obtained:
[1] = target: T1, Amine oxidase [flavin-containing] B (Rattus norvegicus, UniProt P19643); assay: Inhibition of rat brain MAO-B using [14C]-phenylethylamine as substrate preincubated for 60 mins followed by substrate addition and measured after 20 mins by liquid scintillation counting method
T1 sequence (P19643 whole entry): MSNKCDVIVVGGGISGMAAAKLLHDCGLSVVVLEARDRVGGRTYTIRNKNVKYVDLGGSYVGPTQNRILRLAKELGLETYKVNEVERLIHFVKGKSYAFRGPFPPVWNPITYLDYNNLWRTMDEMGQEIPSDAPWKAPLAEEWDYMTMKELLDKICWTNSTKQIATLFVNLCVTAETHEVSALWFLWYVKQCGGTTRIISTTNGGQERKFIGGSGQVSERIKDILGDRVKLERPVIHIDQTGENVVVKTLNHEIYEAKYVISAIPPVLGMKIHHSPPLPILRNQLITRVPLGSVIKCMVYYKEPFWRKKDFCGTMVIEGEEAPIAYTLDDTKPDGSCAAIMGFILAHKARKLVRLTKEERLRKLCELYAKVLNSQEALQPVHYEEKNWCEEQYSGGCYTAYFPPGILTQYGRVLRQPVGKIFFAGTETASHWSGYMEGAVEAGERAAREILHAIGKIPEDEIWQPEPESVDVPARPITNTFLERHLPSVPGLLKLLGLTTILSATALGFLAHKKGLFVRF

[2] = target: T2, Amine oxidase [flavin-containing] A (Homo sapiens, UniProt P21397); assay: Inhibition of human recombinant MAO-A using kynuramine as substrate preincubated for 60 mins followed by substrate addition by discontinuous fluorimetric analysis
T2 sequence (P21397 whole entry): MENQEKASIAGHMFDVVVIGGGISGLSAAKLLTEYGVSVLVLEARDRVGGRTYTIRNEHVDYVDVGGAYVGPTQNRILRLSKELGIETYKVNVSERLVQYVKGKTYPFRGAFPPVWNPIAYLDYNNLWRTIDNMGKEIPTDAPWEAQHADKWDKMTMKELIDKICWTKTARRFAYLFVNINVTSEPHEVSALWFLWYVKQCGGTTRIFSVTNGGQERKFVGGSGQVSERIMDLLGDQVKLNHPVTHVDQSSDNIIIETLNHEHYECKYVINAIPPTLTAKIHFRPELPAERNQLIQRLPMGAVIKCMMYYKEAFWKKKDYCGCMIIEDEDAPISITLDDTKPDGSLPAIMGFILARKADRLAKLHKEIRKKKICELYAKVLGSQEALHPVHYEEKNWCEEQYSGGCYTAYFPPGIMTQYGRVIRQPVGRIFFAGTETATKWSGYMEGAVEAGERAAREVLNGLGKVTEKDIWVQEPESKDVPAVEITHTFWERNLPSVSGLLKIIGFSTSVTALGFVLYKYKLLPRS

[3] = target: Cholinesterase (Equus caballus) (UniProt P81908); assay: Inhibition of equine serum BuChE at 10 uM using acetylthiocholine iodide as substrate preincubated for 30 mins followed by substrate addition and measured every 40 secs for 30 mins by Ellman's method relative to control
[4] = organism: Homo sapiens; assay: Selectivity index, ratio of IC50 for human recombinant MAO-A using kynuramine as substrate preincubated for 60 mins followed by substrate addition to IC50 for human recombinant MAO-B using kynuramine as substrate preincubated for 60 mins followed by substrate addition
[5] = organism: Homo sapiens; assay: Selectivity index, ratio of IC50 for human recombinant MAO-A to IC50 for human recombinant MAO-B using kynuramine as substrate
[6] = Cytotoxicity against human SH-SY5Y cells assessed as cell viability at 10 uM measured after 24 hrs by resazurin dye based fluorescence assay relative to control; conditions: read-out: Activity
[7] = target: T3, Amine oxidase [flavin-containing] B (Homo sapiens, UniProt P27338); assay: Inhibition of human recombinant MAO-B using kynuramine as substrate preincubated for 60 mins followed by substrate addition by discontinuous fluorimetric analysis
T3 sequence (P27338 whole entry): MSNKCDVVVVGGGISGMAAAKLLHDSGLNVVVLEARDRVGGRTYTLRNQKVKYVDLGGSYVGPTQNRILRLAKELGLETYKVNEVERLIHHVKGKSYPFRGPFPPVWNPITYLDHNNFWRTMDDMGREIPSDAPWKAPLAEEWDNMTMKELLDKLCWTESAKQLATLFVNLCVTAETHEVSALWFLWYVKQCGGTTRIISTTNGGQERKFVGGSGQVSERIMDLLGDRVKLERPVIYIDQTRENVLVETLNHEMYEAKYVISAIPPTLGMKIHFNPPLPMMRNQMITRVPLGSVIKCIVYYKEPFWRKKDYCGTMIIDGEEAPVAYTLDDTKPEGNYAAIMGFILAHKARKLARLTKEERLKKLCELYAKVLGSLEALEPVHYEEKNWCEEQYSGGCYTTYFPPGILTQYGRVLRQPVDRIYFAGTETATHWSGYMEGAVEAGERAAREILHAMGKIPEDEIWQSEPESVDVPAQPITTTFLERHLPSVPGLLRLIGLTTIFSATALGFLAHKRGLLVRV

[8] = target: Acetylcholinesterase (Electrophorus electricus) (UniProt O42275); assay: Inhibition of electric eel AChE at 10 uM using acetylthiocholine iodide as substrate preincubated for 30 mins followed by substrate addition and measured every 40 secs for 30 mins by Ellman's method relative to control
[9] = target: T3, Amine oxidase [flavin-containing] B; assay: Inhibition of human recombinant MAO-B using kynuramine as substrate by discontinuous fluorimetric analysis
[10] = target: T2, Amine oxidase [flavin-containing] A; assay: Inhibition of human recombinant MAO-A using kynuramine as substrate by discontinuous fluorimetric analysis
[11] = Cytotoxicity against human SH-SY5Y cells assessed as cell viability at 1 uM measured after 24 hrs by resazurin dye based fluorescence assay relative to control; conditions: read-out: Activity
[12] = target: Histamine H3 receptor (Homo sapiens, UniProt Q9Y5N1); assay: Displacement of [3H] N-alpha methylhistamine from human recombinant H3 receptor expressed in HEK293 cells incubated for 90 min; assay type: cell-based
[13] = Cytotoxicity against human SH-SY5Y cells assessed as cell viability at 1 mM and measured after 24 hrs by resazurin dye based fluorescence assay relative to control; conditions: read-out: Activity
[14] = target: Histamine H1 receptor (Homo sapiens, UniProt P35367); assay: Displacement of [3H] pyrilamine from human H1 histamine receptor
[15] = target: D(2) dopamine receptor (Homo sapiens, UniProt P14416); assay: Displacement of [3H] spiperone from human D2 dopamine receptor
[16] = target: D(3) dopamine receptor (Homo sapiens, UniProt P35462); assay: Displacement of [3H] spiperone from human D3 dopamine receptor
[17] = organism: Homo sapiens; assay: Selectivity index, ratio of IC50 for human recombinant MAO-A using kynuramine as substrate preincubated for 30 mins followed by substrate addition to IC50 for human recombinant MAO-B using kynuramine as substrate preincubated for 30 mins followed by substrate addition
[18] = target: T3, Amine oxidase [flavin-containing] B; assay: Inhibition of human recombinant MAO-B using kynuramine as substrate preincubated for 30 mins followed by substrate addition by discontinuous fluorimetric analysis
[19] = target: T3, Amine oxidase [flavin-containing] B; assay: Irreversible inhibition of human recombinant MAO-B assessed as reduction in enzyme activity at 10 times IC50 using kynuramine as substrate preincubated with compound followed by substrate addition by discontinuous fluorimetric analysis; conditions: TDE = time-dependent effect
[20] = target: T2, Amine oxidase [flavin-containing] A; assay: Inhibition of human recombinant MAO-A using kynuramine as substrate preincubated for 30 mins followed by substrate addition by discontinuous fluorimetric analysis
[21] = target: Histamine H4 receptor (Homo sapiens, UniProt Q9H3N8); assay: Displacement of [3H] histamine from human H4 histamine receptor
Sequence of Histamine H4 receptor (Q9H3N8 whole entry): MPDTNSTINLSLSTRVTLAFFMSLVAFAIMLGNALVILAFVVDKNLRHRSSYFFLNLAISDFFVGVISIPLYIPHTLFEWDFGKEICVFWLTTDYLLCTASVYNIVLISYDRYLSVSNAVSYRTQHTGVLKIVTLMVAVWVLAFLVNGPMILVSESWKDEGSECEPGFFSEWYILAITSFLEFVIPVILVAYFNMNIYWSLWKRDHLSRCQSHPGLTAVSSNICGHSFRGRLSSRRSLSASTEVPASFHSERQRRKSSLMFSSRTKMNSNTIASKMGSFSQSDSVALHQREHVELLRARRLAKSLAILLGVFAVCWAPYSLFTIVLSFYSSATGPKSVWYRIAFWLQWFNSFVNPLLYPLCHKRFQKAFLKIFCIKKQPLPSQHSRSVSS

Sequence of Histamine H3 receptor (Q9Y5N1 whole entry): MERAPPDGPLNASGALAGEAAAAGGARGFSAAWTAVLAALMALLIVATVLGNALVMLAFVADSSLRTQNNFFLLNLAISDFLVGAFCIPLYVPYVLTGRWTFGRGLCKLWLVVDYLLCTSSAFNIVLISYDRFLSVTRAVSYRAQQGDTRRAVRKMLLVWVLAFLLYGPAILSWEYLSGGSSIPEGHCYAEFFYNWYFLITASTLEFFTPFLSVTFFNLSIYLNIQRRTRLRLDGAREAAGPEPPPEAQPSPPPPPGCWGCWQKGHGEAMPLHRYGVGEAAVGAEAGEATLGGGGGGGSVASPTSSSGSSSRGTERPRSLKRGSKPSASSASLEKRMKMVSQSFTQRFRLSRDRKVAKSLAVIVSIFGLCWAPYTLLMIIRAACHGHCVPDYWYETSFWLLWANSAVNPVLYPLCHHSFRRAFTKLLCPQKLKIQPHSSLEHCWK
Sequence of Acetylcholinesterase (Electrophorus electricus) (O42275 24-633 limits assumed): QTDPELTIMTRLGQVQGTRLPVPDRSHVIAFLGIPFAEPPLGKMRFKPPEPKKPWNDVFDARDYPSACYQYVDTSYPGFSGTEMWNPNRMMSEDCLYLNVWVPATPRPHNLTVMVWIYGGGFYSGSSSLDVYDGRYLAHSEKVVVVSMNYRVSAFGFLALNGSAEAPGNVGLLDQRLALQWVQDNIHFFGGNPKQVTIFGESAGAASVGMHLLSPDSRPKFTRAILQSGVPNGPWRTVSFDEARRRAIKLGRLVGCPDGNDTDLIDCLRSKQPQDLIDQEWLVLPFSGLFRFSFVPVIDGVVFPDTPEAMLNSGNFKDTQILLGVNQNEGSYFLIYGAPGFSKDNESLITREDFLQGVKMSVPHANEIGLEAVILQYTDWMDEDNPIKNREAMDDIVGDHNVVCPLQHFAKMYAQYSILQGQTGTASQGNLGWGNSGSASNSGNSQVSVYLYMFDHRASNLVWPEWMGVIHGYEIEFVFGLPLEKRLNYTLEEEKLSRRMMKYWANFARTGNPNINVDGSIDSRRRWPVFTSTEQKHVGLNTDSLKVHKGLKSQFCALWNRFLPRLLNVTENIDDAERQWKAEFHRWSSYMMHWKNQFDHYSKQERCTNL
Sequence of Cholinesterase (Equus caballus) (P81908 whole entry): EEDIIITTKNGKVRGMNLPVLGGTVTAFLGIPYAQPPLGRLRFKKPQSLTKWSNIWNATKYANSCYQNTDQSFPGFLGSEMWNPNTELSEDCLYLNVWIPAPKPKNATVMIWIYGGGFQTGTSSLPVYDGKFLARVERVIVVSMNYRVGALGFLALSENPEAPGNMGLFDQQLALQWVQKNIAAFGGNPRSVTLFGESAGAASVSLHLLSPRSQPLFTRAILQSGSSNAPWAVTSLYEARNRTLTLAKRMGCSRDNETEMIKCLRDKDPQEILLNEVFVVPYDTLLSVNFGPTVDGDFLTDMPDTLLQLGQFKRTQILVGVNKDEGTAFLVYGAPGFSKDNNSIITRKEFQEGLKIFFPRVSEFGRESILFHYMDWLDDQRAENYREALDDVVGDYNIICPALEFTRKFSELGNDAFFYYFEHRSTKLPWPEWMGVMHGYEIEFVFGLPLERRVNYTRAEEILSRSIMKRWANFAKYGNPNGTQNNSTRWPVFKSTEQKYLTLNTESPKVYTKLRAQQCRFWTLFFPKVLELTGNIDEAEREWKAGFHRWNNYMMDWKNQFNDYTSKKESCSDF
Sequence of Histamine H1 receptor (P35367 whole entry): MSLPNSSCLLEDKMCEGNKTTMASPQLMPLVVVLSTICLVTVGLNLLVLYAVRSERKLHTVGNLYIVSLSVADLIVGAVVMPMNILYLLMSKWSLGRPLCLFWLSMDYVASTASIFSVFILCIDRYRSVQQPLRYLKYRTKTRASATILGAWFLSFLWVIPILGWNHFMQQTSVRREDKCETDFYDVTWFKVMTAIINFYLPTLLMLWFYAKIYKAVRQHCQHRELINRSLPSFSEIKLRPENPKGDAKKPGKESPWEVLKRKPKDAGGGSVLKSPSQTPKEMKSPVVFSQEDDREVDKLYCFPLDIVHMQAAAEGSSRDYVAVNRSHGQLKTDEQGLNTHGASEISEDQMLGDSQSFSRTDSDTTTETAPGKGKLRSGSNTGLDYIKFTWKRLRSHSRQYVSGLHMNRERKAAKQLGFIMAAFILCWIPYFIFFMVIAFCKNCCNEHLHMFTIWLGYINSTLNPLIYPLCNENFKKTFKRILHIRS
Sequence of D(3) dopamine receptor (P35462 whole entry): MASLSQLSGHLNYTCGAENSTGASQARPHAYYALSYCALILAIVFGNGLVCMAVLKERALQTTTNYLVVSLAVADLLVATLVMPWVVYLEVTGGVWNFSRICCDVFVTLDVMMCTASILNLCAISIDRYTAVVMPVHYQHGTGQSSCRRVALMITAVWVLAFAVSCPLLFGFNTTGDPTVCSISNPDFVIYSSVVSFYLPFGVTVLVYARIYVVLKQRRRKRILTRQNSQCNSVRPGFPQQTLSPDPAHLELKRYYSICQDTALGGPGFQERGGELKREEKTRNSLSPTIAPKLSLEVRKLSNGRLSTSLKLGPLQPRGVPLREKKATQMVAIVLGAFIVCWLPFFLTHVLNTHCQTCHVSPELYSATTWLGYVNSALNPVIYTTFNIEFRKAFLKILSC
Sequence of D(2) dopamine receptor (P14416 whole entry): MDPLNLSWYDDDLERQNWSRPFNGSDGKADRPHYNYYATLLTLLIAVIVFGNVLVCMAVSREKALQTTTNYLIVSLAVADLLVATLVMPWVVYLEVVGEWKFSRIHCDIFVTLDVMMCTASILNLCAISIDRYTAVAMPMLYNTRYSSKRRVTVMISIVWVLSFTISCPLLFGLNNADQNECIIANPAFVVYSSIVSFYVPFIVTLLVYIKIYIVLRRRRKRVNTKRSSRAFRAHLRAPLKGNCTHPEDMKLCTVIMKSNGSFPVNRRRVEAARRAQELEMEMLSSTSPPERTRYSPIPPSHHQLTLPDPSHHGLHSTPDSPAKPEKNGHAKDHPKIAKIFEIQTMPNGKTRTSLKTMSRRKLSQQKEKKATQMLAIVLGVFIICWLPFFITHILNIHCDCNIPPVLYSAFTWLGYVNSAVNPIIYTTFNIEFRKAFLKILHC

Row | Compound | IC50 [2] [µM] | inhibition [3] [%] | Ratio IC50 [4] | Ratio IC50 [5] | viability at 24 h, 10 µM [6] [%] | IC50 [7] [µM] | inhibition [8] [%] | IC50 [9] [µM] | IC50 [10] [µM] | viability at 24 h, 1 µM [11] [%] | Ki ([12]; read-out: Ki) [µM] | Ki ([12]; read-out: pKi (converted)) [µM] | other results
1 | C#CCN[C@@H]1CCc2ccc(OC(=O)N(C)CC)cc21 [LADOSTIGIL] |  |  |  |  |  |  |  |  |  |  |  |  | IC50 [1]: > 1000 µM
2 | C#CCNC1CCc2ccc(OCCCN3CCCCC3)cc21 (centres undefined) | > 50 | 47 | > 4.8 | > 13 | 100 | 10.5 | 47 | 7.92 | > 100 | 84 | 0.0067 | < 0.01 | 
3 | C[n+]1ccc(-c2ccccc2)cc1 |  |  |  |  |  |  |  |  |  |  |  |  | viability at 24 h, 1000 µM [13]: 1.8%
4 | C#CCNC1CCc2cc(OCCCN3CCCCC3)ccc21 (centres undefined) | > 10 | 32 | > 39 | > 100 | 95.6 | 0.256 | 57 | 0.991 | > 100 | 89.7 | 0.0026 | < 0.01 | Ki [14]: > 10 µM; Ki [15]: > 10 µM; Ki [16]: > 10 µM; Ratio IC50 [17]: > 95; IC50 [18]: 1.05 µM; inhibition (INH) [19]: Tde; IC50 [20]: > 100 µM; Ki [21]: > 100 µM
